Source: the supplement of paper PMC6045584
± gives the standard deviation of the averaged measurements.

Experiments:
[1] = compound: CC(=O)NCC(=O)N1[C@@H]2CC[C@H]1c1ccc(Nc3ncc(C(F)(F)F)c(NC4CCC4)n3)cc12; experiment: surviving fraction relative to DMSO-only wells; higher = less growth inhibition; settings: exposure time: 5 days
How it was run: (§1)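 Continuous five-day exposure to inhibitors at 0.5, 1, 5, 10, 50, 100, 500 and 1000 nM started 24 hours after log-phase tumour cell lines were seeded at 250–500 cells per well in 384-well plates. Luminescence was read after 10 minutes at room temperature. Viability is given as surviving fraction, meaning CellTiter-Glo luminescence normalised to the median of DMSO-only wells.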

PACLITAXEL [2] = compound: T1, CC(=O)O[C@H]1C(=O)[C@@]2(C)[C@H]([C@H](OC(=O)c3ccccc3)[C@]3(O)C[C@H](OC(=O)[C@H](O)[C@@H](NC(=O)c4ccccc4)c4ccccc4)C(C)=C1C3(C)C)[C@]1(OC(C)=O)CO[C@@H]1C[C@@H]2O [PACLITAXEL]; experiment: as above; settings: exposure time: 5 days
How it was run: as §1

[3] = compound: CC(=O)c1c(C)c2cnc(Nc3ccc(N4CCNCC4)cn3)nc2n(C2CCCC2)c1=O; experiment: as above; settings: exposure time: 5 days
How it was run: as §1

CAMPTOTHECIN [4] = compound: T2, CC[C@@]1(O)C(=O)OCc2c1cc1n(c2=O)Cc2cc3ccccc3nc2-1 [CAMPTOTHECIN]; experiment: as above; settings: exposure time: 5 days
How it was run: as §1

YM155 [5] = compound: T3, COCC[n+]1c2c(n(Cc3cnccn3)c1C)C(=O)c1ccccc1C2=O [YM155]; experiment: as above; settings: exposure time: 5 days
How it was run: as §1

GEFITINIB [6] = compound: T4, COc1cc2ncnc(Nc3ccc(F)c(Cl)c3)c2cc1OCCCN1CCOCC1 [GEFITINIB]; experiment: as above; settings: exposure time: 5 days
How it was run: as §1

OSI-906 [7] = compound: T5, C[C@]1(O)C[C@@H](c2nc(-c3ccc4ccc(-c5ccccc5)nc4c3)c3c(N)nccn32)C1 [OSI-906]; experiment: as above; settings: exposure time: 5 days
How it was run: as §1

CELECOXIB = compound: Cc1ccc(-c2cc(C(F)(F)F)nn2-c2ccc(S(N)(=O)=O)cc2)cc1 [CELECOXIB]; experiment: as above; settings: exposure time: 5 days
How it was run: as §1

CARBOPLATIN [8] = compound: T6, O=C(O)C1(C(=O)O)CCC1.[NH2-].[NH2-].[Pt+2] [CARBOPLATIN]; experiment: as above; settings: exposure time: 5 days
How it was run: as §1

[9] = compound: CC(=O)NCC(=O)N1[C@@H]2CC[C@H]1c1ccc(Nc3ncc(C(F)(F)F)c(NC4CCC4)n3)cc12; experiment: area under dose-response curve of surviving fraction (unscaled, Aref=0) (surviving fraction x log10(nM)); higher = more resistant; settings: exposure time: 5 days; dose range 0.5-1000 nM
How it was run: (§2)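 Tumour cell lines in 384-well plates were exposed for five days to eight inhibitor concentrations from 0.5 to 1000 nM. Viability was read by CellTiter-Glo luminescence, normalised to DMSO-only wells, in three screens per line. Dose-response survival curves were fitted to surviving fractions by 3-parameter logistic regression in the drc R package. Area under the curve is the unscaled activity area (Aref = 0) over log10 dose.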

PACLITAXEL [10] = compound: T1, PACLITAXEL; experiment: as above; settings: exposure time: 5 days; dose range 0.5-1000 nM
How it was run: as §2

CAMPTOTHECIN [11] = compound: T2, CAMPTOTHECIN; experiment: as above; settings: exposure time: 5 days; dose range 0.5-1000 nM
How it was run: as §2

YM155 [12] = compound: T3, YM155; experiment: as above; settings: exposure time: 5 days; dose range 0.5-1000 nM
How it was run: as §2

GEFITINIB [13] = compound: T4, GEFITINIB; experiment: as above; settings: exposure time: 5 days; dose range 0.5-1000 nM
How it was run: as §2

OSI-906 [14] = compound: T5, OSI-906; experiment: as above; settings: exposure time: 5 days; dose range 0.5-1000 nM
How it was run: as §2

CARBOPLATIN [15] = compound: T6, CARBOPLATIN; experiment: as above; settings: exposure time: 5 days; dose range 0.5-1000 nM
How it was run: as §2

Test System: MFM223 BREAST
- surviving fraction ([1]; 0.5 nM): 1.1 ± 0.065
- surviving fraction ([1]; 1 nM): 1.02 ± 0.035
- surviving fraction ([1]; 5 nM): 1.05 ± 0.094
- surviving fraction ([1]; 10 nM): 0.963 ± 0.077
- surviving fraction ([1]; 50 nM): 0.794 ± 0.082
- surviving fraction ([1]; 100 nM): 0.699 ± 0.063
- surviving fraction ([1]; 500 nM): 0.47 ± 0.029
- surviving fraction ([1]; 1000 nM): 0.378 ± 0.027
- surviving fraction (PACLITAXEL [2]; 0.5 nM): 0.948 ± 0.056
- surviving fraction (PACLITAXEL [2]; 1 nM): 0.736 ± 0.066
- surviving fraction (PACLITAXEL [2]; 5 nM): 0.295 ± 0.026
- surviving fraction (PACLITAXEL [2]; 10 nM): 0.129 ± 0.012
- surviving fraction (PACLITAXEL [2]; 50 nM): 0.0873 ± 0.012
- surviving fraction (PACLITAXEL [2]; 100 nM): 0.0663 ± 0.003
- surviving fraction (PACLITAXEL [2]; 500 nM): 0.062 ± 0.0051
- surviving fraction (PACLITAXEL [2]; 1000 nM): 0.0632 ± 0.0075
- surviving fraction ([3]; 0.5 nM): 1.17 ± 0.042
- surviving fraction ([3]; 1 nM): 1.13 ± 0.078
- surviving fraction ([3]; 5 nM): 1.16 ± 0.11
- surviving fraction ([3]; 10 nM): 1.19 ± 0.062
- surviving fraction ([3]; 50 nM): 1.15 ± 0.14
- surviving fraction ([3]; 100 nM): 1.15 ± 0.1
- surviving fraction ([3]; 500 nM): 1.09 ± 0.031
- surviving fraction ([3]; 1000 nM): 1.03 ± 0.064
- surviving fraction (CAMPTOTHECIN [4]; 0.5 nM): 0.746 ± 0.07
- surviving fraction (CAMPTOTHECIN [4]; 1 nM): 0.703 ± 0.03
- surviving fraction (CAMPTOTHECIN [4]; 5 nM): 0.566 ± 0.047
- surviving fraction (CAMPTOTHECIN [4]; 10 nM): 0.573 ± 0.11
- surviving fraction (CAMPTOTHECIN [4]; 50 nM): 0.754 ± 0.087
- surviving fraction (CAMPTOTHECIN [4]; 100 nM): 0.662 ± 0.041
- surviving fraction (CAMPTOTHECIN [4]; 500 nM): 0.296 ± 0.072
- surviving fraction (CAMPTOTHECIN [4]; 1000 nM): 0.303 ± 0.1
- surviving fraction (YM155 [5]; 0.5 nM): 0.966 ± 0.082
- surviving fraction (YM155 [5]; 1 nM): 0.954 ± 0.19
- surviving fraction (YM155 [5]; 5 nM): 0.259 ± 0.2
- surviving fraction (YM155 [5]; 10 nM): 0.209 ± 0.15
- surviving fraction (YM155 [5]; 50 nM): 0.0798 ± 0.051
- surviving fraction (YM155 [5]; 100 nM): 0.085 ± 0.085
- surviving fraction (YM155 [5]; 500 nM): 0.116 ± 0.16
- surviving fraction (YM155 [5]; 1000 nM): 0.138 ± 0.18
- surviving fraction (GEFITINIB [6]; 0.5 nM): 1.49 ± 0.61
- surviving fraction (GEFITINIB [6]; 1 nM): 1.42 ± 0.47
- surviving fraction (GEFITINIB [6]; 5 nM): 1.51 ± 0.61
- surviving fraction (GEFITINIB [6]; 10 nM): 1.5 ± 0.53
- surviving fraction (GEFITINIB [6]; 50 nM): 1.19 ± 0.058
- surviving fraction (GEFITINIB [6]; 100 nM): 1.19 ± 0.092
- surviving fraction (GEFITINIB [6]; 500 nM): 1.12 ± 0.035
- surviving fraction (GEFITINIB [6]; 1000 nM): 1.14 ± 0.07
- surviving fraction (OSI-906 [7]; 0.5 nM): 0.716 ± 0.049
- surviving fraction (OSI-906 [7]; 1 nM): 0.791 ± 0.1
- surviving fraction (OSI-906 [7]; 5 nM): 0.768 ± 0.092
- surviving fraction (OSI-906 [7]; 10 nM): 0.811 ± 0.15
- surviving fraction (OSI-906 [7]; 50 nM): 1.05 ± 0.095
- surviving fraction (OSI-906 [7]; 100 nM): 1.02 ± 0.088
- surviving fraction (OSI-906 [7]; 500 nM): 1.09 ± 0.013
- surviving fraction (OSI-906 [7]; 1000 nM): 1.04 ± 0.017
- surviving fraction (CELECOXIB; 0.5 nM): 1.41 ± 0.52
- surviving fraction (CELECOXIB; 1 nM): 1.3 ± 0.2
- surviving fraction (CELECOXIB; 5 nM): 1.29 ± 0.26
- surviving fraction (CELECOXIB; 10 nM): 1.33 ± 0.34
- surviving fraction (CELECOXIB; 50 nM): 1.1 ± 0.034
- surviving fraction (CELECOXIB; 100 nM): 1.09 ± 0.1
- surviving fraction (CELECOXIB; 500 nM): 1.05 ± 0.11
- surviving fraction (CELECOXIB; 1000 nM): 1.03 ± 0.017
- surviving fraction (CARBOPLATIN [8]; 0.5 nM): 1.22 ± 0.071
- surviving fraction (CARBOPLATIN [8]; 1 nM): 1.22 ± 0.18
- surviving fraction (CARBOPLATIN [8]; 5 nM): 1.22 ± 0.18
- surviving fraction (CARBOPLATIN [8]; 10 nM): 1.15 ± 0.18
- surviving fraction (CARBOPLATIN [8]; 50 nM): 1.16 ± 0.021
- surviving fraction (CARBOPLATIN [8]; 100 nM): 1.12 ± 0.094
- surviving fraction (CARBOPLATIN [8]; 500 nM): 1.11 ± 0.077
- surviving fraction (CARBOPLATIN [8]; 1000 nM): 1.06 ± 0.11
- area under dose-response curve [9]: 2.67
- area under dose-response curve (PACLITAXEL [10]): 0.825
- area under dose-response curve (CAMPTOTHECIN [11]): 1.92
- area under dose-response curve (YM155 [12]): 0.996
- area under dose-response curve (GEFITINIB [13]): 3.88
- area under dose-response curve (OSI-906 [14]): 2.94
- area under dose-response curve (CARBOPLATIN [15]): 3.74
